In patent publication EP4603105A1, “PHARMACEUTICAL COMPOSITION CONTAINING CYCLIC COMPOUND HAVING SELECTIVE KRAS INHIBITORY EFFECT AGAINST HRAS AND NRAS” (CHUGAI SEIYAKU KABUSHIKI KAISHA, priority 2022, dated 2024):
Where a SMILES comes first, the peptide text is derived from it. Bridges are numbered along the chain shown (N, C = ends). [ ]: non-standard residue; d: D form. The star is where a group is joined. hPhe(3,5-F2-4-CF3) = N[C@@H](CCc1cc(F)c(C(F)(F)F)c(F)c1)C(=O)O; hPhe(3-Cl-4-CF3) = N[C@@H](CCc1ccc(C(F)(F)F)c(Cl)c1)C(=O)O; NPrPhe(4-CF3) = CCCN[C@@H](Cc1ccc(C(F)(F)F)cc1)C(=O)O; NMeGly(cPent) = CN[C@H](C(=O)O)C1CCCC1; αMeCha = C[C@](N)(CC1CCCCC1)C(=O)O; NMeD = CN[C@@H](CC(=O)O)C(=O)O; NMeL = CN[C@@H](CC(C)C)C(=O)O; Morpholide = C1CN(*)CCO1; Ac5c = NC1(C(=O)O)CCCC1; NPrGly = CCCNCC(=O)O; Sar = CNCC(=O)O

Legend:
[1] = molecular target: GDP-bound NRAS wild-type protein (Homo sapiens, UniProt P01111); experiment: Binding to NRAS by surface plasmon resonance (SPR), KD and KD ratio to KRAS
Chain of GDP-bound NRAS wild-type protein (P01111 whole entry): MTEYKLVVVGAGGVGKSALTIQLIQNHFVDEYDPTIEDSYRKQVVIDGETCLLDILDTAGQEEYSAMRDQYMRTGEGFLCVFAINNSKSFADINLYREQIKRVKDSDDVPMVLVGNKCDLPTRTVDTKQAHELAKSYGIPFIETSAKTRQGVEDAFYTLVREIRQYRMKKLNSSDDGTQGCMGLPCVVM
How it was run: (§1)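 Compound binding is evaluated by SPR single-cycle kinetics, with concentrations added intermittently from low to high for 75 s each. Target surfaces carry GDP-loaded biotinylated Avi-RAS at about 100–300 RU, regenerated after each cycle; temperature 30°C. A 1:1 binding model gives KD.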

HRAS wild-type protein = HRAS wild-type protein (Homo sapiens, UniProt P01112); experiment: Binding to HRAS by surface plasmon resonance (SPR), KD and KD ratio to KRAS
Chain of HRAS wild-type protein (P01112 whole entry): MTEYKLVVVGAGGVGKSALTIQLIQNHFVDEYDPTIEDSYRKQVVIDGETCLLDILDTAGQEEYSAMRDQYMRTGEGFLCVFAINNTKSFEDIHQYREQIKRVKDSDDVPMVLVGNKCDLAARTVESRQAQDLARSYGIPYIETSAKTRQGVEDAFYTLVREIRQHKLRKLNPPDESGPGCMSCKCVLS
How it was run: as §1

[2] = system: human lung cancer strain NCI-H441; type: cell-based
How it was run: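 Proliferation was scored by […] measured after the reagent was added to cultures kept at 37°C in 5% carbon dioxide.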

[3] = ratio of KD for GDP-bound NRAS wild-type protein to KD for KRAS
[4] = ratio of KD for HRAS wild-type protein to KD for KRAS
[5] = ratio of the KD value with respect to GDP-bound NRAS wild-type protein to the KD value with respect to KRAS
[6] = ratio of the KD value with respect to HRAS wild-type protein to the KD value with respect to KRAS

Row | SMILES | IC50 [2] | NRAS /KRAS [1, 3] | HRAS /KRAS (HRAS wild-type protein; [4]) | NRAS /KRAS [1, 5] | HRAS /KRAS (HRAS wild-type protein; [6]) | further results
1 | CCO[C@@H]1C[C@H]2C(=O)NC3(CC(C)(C)C3)C(=O)N(C)[C@@H](C3CCCC3)C(=O)N(C)[C@H](C(=O)N(CC)CC)CC(=O)N(C)[C@@H](CC)C(=O)N[C@@H]([C@@H](C)CC)C(=O)N(C)CC(=O)N(C)[C@H]3C/C=C\CCN(C3=O)[C@@H](Cc3ccc(C)cc3)C(=O)N(C)CC(=O)N[C@@H](CCc3ccc(C(F)(F)F)c(Cl)c3)C(=O)N2C1 [PP1883] | 24 nM | – | – | – | – | NRAS /KRAS ([1]; ratio of KD value for GDP-bound NRAS wild-type protein to KD value for KRAS (SPR)): A (a compound having 10 or more and less than 20 is denoted as A); HRAS /KRAS (HRAS wild-type protein; ratio of KD value for HRAS wild-type protein to KD value for KRAS (SPR)): A (a compound having 10 or more and less than 20 is denoted as A)
2 | CCCN1CC(=O)NC2(CCCC2)C(=O)N(C)[C@@H](C2CCCC2)C(=O)N(C)[C@H](C(=O)N2CCOCC2)CC(=O)N(C)[C@@H](CC(C)C)C(=O)N[C@@H]([C@@H](C)CC)C(=O)N(C)CC(=O)N(C)CC(=O)N(CCC)[C@@H](Cc2ccc(C(F)(F)F)cc2)C(=O)N(C)CC(=O)N[C@@H](CCc2ccc(C(F)(F)F)c(Cl)c2)C1=O [PP0267] ([NMeL]I[Sar][Sar][NPrPhe(4-CF3)][Sar][hPhe(3-Cl-4-CF3)][NPrGly][Ac5c][NMeGly(cPent)][NMeD]-Morpholide; lactam N-11) | 38.2 nM | B (a compound having 3 or more and less than 10 is denoted as B) | B (a compound having 3 or more and less than 10 is denoted as B) | – | – | –
3 | CCCN1C(=O)CN(C)C(=O)CN(C)C(=O)[C@H]([C@@H](C)CC)NC(=O)[C@H](CC(C)C)N(C)C(=O)C[C@@H](C(=O)N(C)C)N(C)C(=O)[C@H](C2CCCC2)N(C)C(=O)[C@](C)(CC2CCCCC2)NC(=O)[C@@H]2CCCN2C(=O)[C@H](CCc2cc(F)c(C(F)(F)F)c(F)c2)NC(=O)CN(C)C(=O)[C@@H]1Cc1ccc(C(F)(F)F)cc1 [PP0739] ([NMeL]I[Sar][Sar][NPrPhe(4-CF3)][Sar][hPhe(3,5-F2-4-CF3)]P[αMeCha][NMeGly(cPent)][NMeD]-NMe2; lactam N-11) | 297 nM | – | – | B (a compound having 3 or more and less than 10 is denoted as B) | C (A compound having a KD ratio of 0.1 or more and less than 3 is denoted as C) | –
4 | CCO[C@@H]1C[C@H]2C(=O)NC3(CCCC3)C(=O)N(C)[C@@H](C3CCCC3)C(=O)N(C)[C@H](C(=O)N3CCOCC3)CC(=O)N(C)[C@@H](CC)C(=O)N[C@@H]([C@@H](C)CC)C(=O)N(C)CC(=O)N(C)[C@H]3C[C@@H](C)CCN(C3=O)[C@@H](Cc3ccc(C(F)(F)F)cc3)C(=O)N(C)CC(=O)N[C@@H](CCc3cc(F)c(C(F)(F)F)c(F)c3)C(=O)N2C1 [PP1029] | 24.3 nM | C (A compound having a KD ratio of 0.1 or more and less than 3 is denoted as C) | B (a compound having 3 or more and less than 10 is denoted as B) | – | – | –
5 | CCO[C@@H]1C[C@H]2C(=O)NC3(CCC3)C(=O)N(C)[C@@H](C3CCCC3)C(=O)N(C)[C@H](C(=O)N3CCOCC3)CC(=O)N(C)[C@@H](CC)C(=O)N[C@@H]([C@@H](C)CC)C(=O)N(C)CC(=O)N(C)[C@H]3CC/C=C(/C)CN(C3=O)[C@@H](Cc3ccc(C(F)(F)F)cc3)C(=O)N(C)CC(=O)N[C@@H](CCc3cc(F)c(C(F)(F)F)c(F)c3)C(=O)N2C1 [PP1335] | 736 nM | – | – | – | – | NRAS /KRAS ([1]; ratio of KD with respect to GDP-bound NRAS wild-type protein to KD with respect to KRAS): B (a compound having 3 or more and less than 10 is denoted as B); HRAS /KRAS (HRAS wild-type protein; ratio of KD with respect to HRAS wild-type protein to KD with respect to KRAS): B (a compound having 3 or more and less than 10 is denoted as B)
6 | CC[C@H](C)[C@@H]1NC(=O)[C@H](CC(C)C)N(C)C(=O)C[C@@H](C(=O)N2CCOCC2)N(C)C(=O)[C@H](C2CCCC2)N(C)C(=O)C2(CCCC2)NC(=O)[C@@H]2CCCN2C(=O)[C@H](CCc2cc(F)c(C(F)(F)F)c(F)c2)NC(=O)CN(C)C(=O)[C@H](Cc2ccc(C(F)(F)F)cc2)N2CCCC[C@@H](C2=O)N(C)C(=O)CNC1=O [PP0542] | 3.4 nM | – | – | B (a compound having 3 or more and less than 10 is denoted as B) | B (a compound having 3 or more and less than 10 is denoted as B) | –
